# Measured values published in patent publication US5744452A, “γ-L-glutamyl containing immunomodulator compounds and methods therewith” (Wei; Edward T., priority 1995, dated 1998).
# Assays:
# [1] = system: patients with generalized surgical infection; test: Study in patients with generalized surgical infection; type: in vivo, human; conditions: for Adhesion (%) / Blast transformation PHA / Blast transformation spont / CD3 (%) / CD4 (%) / CD4/CD8 / CD8 (%) / CD16 (%) / CD72 (%) / Chemilumin luminol (induced) / Chemilumin luminol (spontaneous) / IL-1 production LPS induced / IL-1 production spontaneous / IgA / IgG / IgM / NBT test induced / NBT test spontaneous / TNF production spontaneous / TNF prpoduction LPS induced: surgical infection; for Alanine aminotransferase / Albumin / Asparagine aminotransferase / Band neutrophils (%) / Bilirubin / Creatinin / Hemoglobin / Mature neutrophils (%) / Monocytes (%) / Plasma protein / Urea: surgical patients
# Method: (§1) Preliminary studies were conducted to characterize the immunomodulatory properties of Bestim in human subjects. The protocol for the human subjects studies were reviewed and approved by a Hospital Committee (Moscow Hospital N-24) and informed consent was obtained from all subjects. All 62 patients received by intramuscular injection 0.1 mg of Bestim dissolved in 1.5 to 2.0 ml of sterile saline, one injection per day for 5 days. Patients participating in the clinical trials were from 2 groups:
# The second group consisted of 28 patients with generalized surgical infection. Bestim was given together with standard antibiotic therapy.
# Laboratory measurements (data in Table 8 to 10) were performed one day before and compared to values obtained three days after injection of Bestim.
# mice = test: Pharmacological activity after oral administration to mice; type: in vivo; conditions: for .THETA.-antigen expression % of cells: bone marrow after 30 days; for IL-2 production: splenocytes after 30 days
# Method: Bestim dissolved in saline was given orally, for 5 days, to groups of 5 mice per dose. After 30 days, the quantity of .THETA.-antigen positive cells in bone marrow and IL-2 production by splenocytes were measured (as described in later in methods).
# patient with sepsis = test: Case History 2: immunodeficiency caused by sepsis (Patient B); type: in vivo, human
# Method: Patient B was in the clinic with a diagnosis of sepsis. Immunodeficiency was confirmed by laboratory tests. Bestim was administered in the standard 5 daily intramuscular doses of 0.1 mg.
# human subjects = test: Side-effects in all 62 human subjects; type: in vivo; conditions: 0.1 mg i.m. per day for 5 days, 62 patients
# Method: as §1, with “groups: […]” for “groups:”
# rats = test: Subacute toxicity, repeated intramuscular injection, rats; type: in vivo
# Method: To illustrate this point and in preparation for clinical studies, acute and sub-acute toxicity studies were conducted in animals with Bestim according to conditions of good-laboratory practices. Bestim, prepared as a sterile lyophitized powder in ampoules, was dissolved in sterile 0.9% NaCl solution and injected intramuscularly in all experiments.
# Subacute Toxicity Studies: In a second set of experiments, Bestim was administered for longer durations, accordingly:
# rats: 1 mg/kg and 100 mg/kg, administered intramuscularly daily for 3 months and for 6 months
# [2] = Bestim combined with conventional methods
smiles,measurement,setting,value
"N[C@@H](CCC(=O)N[C@@H](Cc1c[nH]c2ccccc12)C(=O)O)C(=O)O [Bestim, γ-L-glutamyl-L-tryptophan]",clinical improvement,[1]; [2],more rapid clinical improvement
same,duration of the patient's stay in the clinic,[1]; [2],decreased the duration of the patient's stay in the clinic
same,Adhesion (%),[1]; Bestim After,41 ± 3%
same,Blast transformation PHA,[1]; Bestim After,8935 ± 780
same,Blast transformation spont,[1]; Bestim After,541 ± 48
same,CD3 (%),[1]; Bestim After,65 ± 5%
same,CD4 (%),[1]; Bestim After,40 ± 3%
same,CD4/CD8,[1]; Bestim After,1.92 ± 0.17
same,CD8 (%),[1]; Bestim After,22 ± 2%
same,CD16 (%),[1]; Bestim After,10.7 ± 2.1%
same,CD72 (%),[1]; Bestim After,4.0 ± 0.5%
same,Chemilumin luminol (induced),[1]; Bestim After,5063 ± 431
same,Chemilumin luminol (spontaneous),[1]; Bestim After,1427 ± 252
same,IL-1 production LPS induced,[1]; Bestim After,1601 ± 284
same,IL-1 production spontaneous,[1]; Bestim After,588 ± 201
same,IgA,[1]; Bestim After,2.2 ± 0.1 g/L
same,IgG,[1]; Bestim After,9.7 ± 0.9 g/L
same,IgM,[1]; Bestim After,1.2 ± 0.1 g/L
same,NBT test induced,[1]; Bestim After,144 ± 17
same,NBT test spontaneous,[1]; Bestim After,77 ± 11
same,TNF production spontaneous,[1]; Bestim After,286 ± 27
same,TNF prpoduction LPS induced,[1]; Bestim After,338 ± 81
same,Adhesion (%),[1]; Bestim Before,32 ± 3%
same,Blast transformation PHA,[1]; Bestim Before,4563 ± 524
same,Blast transformation spont,[1]; Bestim Before,435 ± 53
same,CD3 (%),[1]; Bestim Before,35 ± 5%
same,CD4 (%),[1]; Bestim Before,25 ± 4%
same,CD4/CD8,[1]; Bestim Before,2.09 ± 0.30
same,CD8 (%),[1]; Bestim Before,15 ± 2%
same,CD16 (%),[1]; Bestim Before,6.2 ± 1.1%
same,CD72 (%),[1]; Bestim Before,4.1 ± 0.6%
same,Chemilumin luminol (induced),[1]; Bestim Before,2943 ± 307
same,Chemilumin luminol (spontaneous),[1]; Bestim Before,1008 ± 90
same,IL-1 production LPS induced,[1]; Bestim Before,1014 ± 157
same,IL-1 production spontaneous,[1]; Bestim Before,481 ± 166
same,IgA,[1]; Bestim Before,2.4 ± 0.4 g/L
same,IgG,[1]; Bestim Before,10.6 ± 1.5 g/L
same,IgM,[1]; Bestim Before,1.2 ± 0.2 g/L
same,NBT test induced,[1]; Bestim Before,111 ± 15
same,NBT test spontaneous,[1]; Bestim Before,79 ± 12
same,TNF production spontaneous,[1]; Bestim Before,134 ± 55
same,TNF prpoduction LPS induced,[1]; Bestim Before,370 ± 64
same,Alanine aminotransferase,[1]; Bestim After,18 ± 3 IU/L
same,Albumin,[1]; Bestim After,40 ± 2 g/L
same,Asparagine aminotransferase,[1]; Bestim After,17 ± 3 IU/L
same,Band neutrophils (%),[1]; Bestim After,7 ± 1.6%
same,Bilirubin,[1]; Bestim After,7 ± 1 μM/L
same,Creatinin,[1]; Bestim After,98 ± 4 μM/L
same,Hemoglobin,[1]; Bestim After,101 ± 4 g/L
same,Mature neutrophils (%),[1]; Bestim After,70 ± 1%
same,Monocytes (%),[1]; Bestim After,3.6 ± 0.7%
same,Plasma protein,[1]; Bestim After,73 ± 3 g/L
same,Urea,[1]; Bestim After,4.0 ± 0.4 mM/L
same,Alanine aminotransferase,[1]; Bestim Before,29 ± 7 IU/L
same,Albumin,[1]; Bestim Before,38 ± 2 g/L
same,Asparagine aminotransferase,[1]; Bestim Before,30 ± 9 IU/L
same,Band neutrophils (%),[1]; Bestim Before,12 ± 2%
same,Bilirubin,[1]; Bestim Before,10 ± 1 μM/L
same,Creatinin,[1]; Bestim Before,117 ± 7 μM/L
same,Hemoglobin,[1]; Bestim Before,98 ± 4 g/L
same,Mature neutrophils (%),[1]; Bestim Before,76 ± 2%
same,Monocytes (%),[1]; Bestim Before,3.2 ± 0.5%
same,Plasma protein,[1]; Bestim Before,70 ± 3 g/L
same,Urea,[1]; Bestim Before,5.5 ± 0.3 mM/L
same,activity after oral administration,"mice; animal studies, summary",active after oral administration
same,.THETA.-antigen expression % of cells,mice; oral 0.1 μg/kg/day for 5 days,48 ± 1.9 % of cells
same,IL-2 production,mice; oral 0.1 μg/kg/day for 5 days,43 ± 11.5 Units/ml
same,.THETA.-antigen expression % of cells,mice; oral 1 μg/kg/day for 5 days,48 ± 3.0 % of cells
same,IL-2 production,mice; oral 1 μg/kg/day for 5 days,73 ± 16.3 Units/ml
same,.THETA.-antigen expression % of cells,mice; oral 10 μg/kg/day for 5 days,36 ± 2.3 % of cells
same,IL-2 production,mice; oral 10 μg/kg/day for 5 days,130 ± 11.8 Units/ml
same,Lymphocytes,patient with sepsis; After Bestim Therapy,1370 per mm^3
same,T-Lymphocytes (CD3),patient with sepsis; After Bestim Therapy,75%
same,T-helper lymphocytes (CD4),patient with sepsis; After Bestim Therapy,50%
same,White blood cells,patient with sepsis; After Bestim Therapy (5 daily i.m. 0.1 mg),9.8 × 10^3 per mm^3
same,Lymphocytes,patient with sepsis; Before Therapy,560 per mm^3
same,T-Lymphocytes (CD3),patient with sepsis; Before Therapy,23%
same,T-helper lymphocytes (CD4),patient with sepsis; Before Therapy,11%
same,White blood cells,patient with sepsis; Before Therapy,10.2 × 10^3 per mm^3
same,side-effects,human subjects,No detectable side-effects
same,"morphological appearance of all organs, macroscopic and histological","rats; rats, 1 and 100 mg/kg i.m. daily for 3 and 6 months",normal
same,body weight,"rats; rats, both doses (1 and 100 mg/kg i.m. daily)",slight increase in body weight
same,tested dose relative to expected doses for therapeutic trials,rats; repeated administration,~100 fold
